The assay concerns L1210 leukemia ip in BDF1 mice, survival T/C. Nature of the assay: NCI In Vivo Anticancer Drug Screen. Data for tumor model L1210 Leukemia (intraperitoneal) in B6D2F1 (BDF1) mice. To be noted: endpoint: mean survival time, higher = longer survival. In a few lines: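 Ratio derived from survival: compound-dosed mice over vehicle-dosed mice, all bearing a transplantable tumor.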
[1] abbreviates: dose: 100.0 mg/kg/injection, schedule: Q01DX009 (ip), vehicle: saline with Tween-80.
Where [2] appears, read: dose: 100.0 mg/kg/injection, schedule: Q04DX002 (ip), vehicle: saline with Tween-80.
[3] abbreviates: dose: 100.0 mg/kg/injection, schedule: Q04DX003 (ip), vehicle: saline with Tween-80.
Setting [4] is: dose: 200.0 mg/kg/injection, schedule: Q01DX009 (ip), vehicle: saline with Tween-80.
Where [5] appears, read: dose: 200.0 mg/kg/injection, schedule: Q04DX002 (ip), vehicle: saline with Tween-80.
Where [6] appears, read: dose: 200.0 mg/kg/injection, schedule: Q04DX003 (ip), vehicle: saline with Tween-80.
The mark [7] stands for this setting: dose: 400.0 mg/kg/injection, schedule: Q01DX009 (ip), vehicle: saline with Tween-80.
Where [8] appears, read: dose: 400.0 mg/kg/injection, schedule: Q04DX002 (ip), vehicle: saline with Tween-80.
Where [9] appears, read: dose: 400.0 mg/kg/injection, schedule: Q04DX003 (ip), vehicle: saline with Tween-80.
Setting [10] is: dose: 100.0 mg/kg/injection, schedule: Q01DX009 (ip), vehicle: Klucel (hydroxypropylcellulose) (HPC).
Where [11] appears, read: dose: 100.0 mg/kg/injection, schedule: Q04DX003 (ip), vehicle: Klucel (hydroxypropylcellulose) (HPC).
Setting [12] is: dose: 200.0 mg/kg/injection, schedule: Q01DX009 (ip), vehicle: Klucel (hydroxypropylcellulose) (HPC).
[13] abbreviates: dose: 200.0 mg/kg/injection, schedule: Q04DX003 (ip), vehicle: Klucel (hydroxypropylcellulose) (HPC).
The mark [14] stands for this setting: dose: 400.0 mg/kg/injection, schedule: Q01DX009 (ip), vehicle: Klucel (hydroxypropylcellulose) (HPC).
[15] abbreviates: dose: 400.0 mg/kg/injection, schedule: Q04DX003 (ip), vehicle: Klucel (hydroxypropylcellulose) (HPC).
The mark [16] stands for this setting: dose: 100.0 mg/kg/injection, schedule: Q01DX001 (ip), vehicle: Klucel (hydroxypropylcellulose) (HPC).
The mark [17] stands for this setting: dose: 200.0 mg/kg/injection, schedule: Q01DX001 (ip), vehicle: Klucel (hydroxypropylcellulose) (HPC).
The mark [18] stands for this setting: dose: 100.0 mg/kg/injection, schedule: Q01DX009 (ip), vehicle: saline.
Setting [19] is: dose: 200.0 mg/kg/injection, schedule: Q01DX009 (ip), vehicle: saline.
Where [20] appears, read: dose: 100.0 mg/kg/injection, schedule: Q01DX001 (ip), vehicle: saline.
Where [21] appears, read: dose: 200.0 mg/kg/injection, schedule: Q01DX001 (ip), vehicle: saline.
Setting [22] is: dose: 400.0 mg/kg/injection, schedule: Q01DX001 (ip), vehicle: saline.

Values joined by “and” are separate entries in the source; they are usually repeats but may differ in a detail not shown here. Identical values can stand only once. Inconclusive results and toxic doses are left out.

For `COC(=O)c1ccccc1OC(=O)Nc1ccc(SC)cc1`, the T/C was 96 % of control and 91 % of control (dose: 50.0 mg/kg/injection, schedule: Q04DX002 (ip), vehicle: saline with Tween-80); 96 % of control under setting [1]; 96 % of control and 104 % of control and 86 % of control under setting [2]; 100 % of control under setting [3]; 94 % of control and 89 % of control under setting [4]; 95 % of control and 104 % of control under setting [5]. For the same compound, the T/C was 98 % of control under setting [6]; 102 % of control and 115 % of control under setting [7]; 93 % of control and 105 % of control and 107 % of control under setting [8]; 97 % of control under setting [9].

For the compound `COc1ccc(OC)c2c1CC1CC(=O)OC21C` (centres undefined), the T/C is, setting by setting: under setting [10], 97 % of control; under setting [11], 97 % of control; under setting [12], 92 % of control; under setting [13], 97 % of control; under setting [14], 97 % of control; under setting [15], 97 % of control.

With `OCC1OC(n2cnc3c(NO)nc(NO)nc32)C(O)C1O` (centres undefined), the T/C runs as follows: (dose: 30.0 mg/kg/injection, schedule: Q01DX009 (ip), vehicle: saline) 151 % of control; (dose: 150.0 mg/kg/injection, schedule: Q01DX001 (ip), vehicle: saline) 115 % of control.

As for `CC1(C)OC2OC(COC(=O)c3ccccc3)C(O)C2O1` (centres undefined), the T/C (dose: 50.0 mg/kg/injection, schedule: Q01DX001 (ip), vehicle: carboxymethylcellulose (CMC)) is 98 % of control; the T/C (dose: 100.0 mg/kg/injection, schedule: Q01DX001 (ip), vehicle: carboxymethylcellulose (CMC)) is 101 % of control; the T/C (dose: 200.0 mg/kg/injection, schedule: Q01DX001 (ip), vehicle: carboxymethylcellulose (CMC)) was 104 % of control; the T/C (dose: 400.0 mg/kg/injection, schedule: Q01DX001 (ip), vehicle: carboxymethylcellulose (CMC)) was 98 % of control.

Regarding `CC(=O)NC(C)CCC(C)C` (centres undefined), the T/C was 101 % of control under setting [11], 100 % of control under setting [13] and 101 % of control under setting [15].

As to `CC1=C(/C=C/C(C)=C/C=C/C(C)=C/C=O)C(C)(C)CCC1`, the T/C by setting is: (dose: 50.0 mg/kg/injection, schedule: Q01DX009 (ip), vehicle: steriod suspending solution) 89 % of control and 95 % of control; (dose: 100.0 mg/kg/injection, schedule: Q01DX009 (ip), vehicle: steriod suspending solution) 92 % of control; (dose: 200.0 mg/kg/injection, schedule: Q01DX001 (sc), vehicle: steriod suspending solution) 96 % of control and 95 % of control; (dose: 400.0 mg/kg/injection, schedule: Q01DX001 (sc), vehicle: steriod suspending solution) 96 % of control.

As for `NC(=S)NNC(N)=S`, the T/C by setting is: (dose: 50.0 mg/kg/injection, schedule: Q01DX001 (ip), vehicle: Klucel (hydroxypropylcellulose) (HPC)) 90 % of control; under setting [16], 97 % of control; under setting [17], 100 % of control.

Regarding `C=COCCC(C(=O)OCC)C(=O)OCC`, the T/C runs as follows: under setting [18], 100 % of control; under setting [19], 96 % of control; (dose: 400.0 mg/kg/injection, schedule: Q01DX009 (ip), vehicle: saline) 100 % of control.

Consider `c1ccc(CCc2ccccc2)cc1`, for which the T/C under setting [1] is 91 % of control; the T/C under setting [2] is 95 % of control; the T/C under setting [4] is 91 % of control; the T/C under setting [5] is 98 % of control; the T/C under setting [7] was 94 % of control; the T/C under setting [8] was 98 % of control.

As for `CCOC(=O)C(C(=O)OCC)C1C=CCC1` (centres undefined), the T/C by setting is: under setting [10], 104 % of control; under setting [11], 98 % of control; under setting [12], 96 % of control; under setting [13], 97 % of control; under setting [14], 91 % of control; under setting [15], 108 % of control.

Regarding `c1ccc2c(c1)CCc1c-2[nH]c2c1ccc1ccccc12`, the T/C by setting is: under setting [20], 91 % of control; under setting [21], 111 % of control; under setting [22], 94 % of control.

In the case of `Nc1cc2oc3ccccc3c2c2cccnc12`, the T/C is, setting by setting: under setting [16], 103 % of control; under setting [11], 106 % of control; under setting [17], 100 % of control; under setting [13], 103 % of control; (dose: 400.0 mg/kg/injection, schedule: Q01DX001 (ip), vehicle: Klucel (hydroxypropylcellulose) (HPC)) 91 % of control; under setting [15], 103 % of control.

In the case of `CC(=O)Nc1c(C)cc(Cl)cc1Cl`, the T/C by setting is: (dose: 25.6 mg/kg/injection, schedule: Q04DX002 (ip), vehicle: saline with Tween-80) 95 % of control; (dose: 64.0 mg/kg/injection, schedule: Q04DX002 (ip), vehicle: saline with Tween-80) 95 % of control; under setting [1], 91 % of control; under setting [3], 91 % of control; (dose: 160.0 mg/kg/injection, schedule: Q04DX002 (ip), vehicle: saline with Tween-80) 95 % of control; under setting [4], 89 % of control. The T/C by setting is: under setting [6], 95 % of control; under setting [7], 96 % of control; under setting [8], 98 % of control; under setting [9], 98 % of control.

For the compound `COC1(OC)CC2C(=O)CCCC21OC(C)=O` (centres undefined), the T/C (dose: 75.0 mg/kg/injection, schedule: Q04DX002 (ip), vehicle: saline) is 93 % of control; the T/C (dose: 150.0 mg/kg/injection, schedule: Q04DX002 (ip), vehicle: saline) is 103 % of control; the T/C (dose: 300.0 mg/kg/injection, schedule: Q04DX002 (ip), vehicle: saline) was 107 % of control.

With `Cc1ccc(C(=O)c2ccc(Cl)cc2)cc1`, the T/C was 90 % of control (dose: 50.0 mg/kg/injection, schedule: Q01DX001 (ip), vehicle: saline); 98 % of control under setting [20]; 102 % of control under setting [21]; 96 % of control under setting [22].

Take `CCOC(=O)c1nnc(-c2ccc(C)cc2)[nH]c1=O`: the T/C by setting is: (dose: 50.0 mg/kg/injection, schedule: Q01DX009 (ip), vehicle: Klucel (hydroxypropylcellulose) (HPC)) 95 % of control; under setting [10], 95 % of control; under setting [12], 106 % of control.

On to `O=C1OC(=C(c2ccccc2)c2ccccc2)c2ccccc21`, for which the T/C is 100 % of control under setting [18]; 96 % of control under setting [3]; 100 % of control under setting [19]; 96 % of control under setting [6]; 90 % of control under setting [9].

In the case of `O=C1c2ccccc2C(=O)N1CNc1ccccc1S`, the T/C by setting is: under setting [10], 100 % of control; under setting [12], 104 % of control; under setting [14], 109 % of control.
